Activity calls are given as the source filed them. No cut-off for these calls is given here.
Columns and labels:
Bacillus subtilis = test: Antimicrobial activity against Bacillus subtilis DSM 10 assessed as inhibition of microbial growth incubated overnight by serial dilution method; type: functional
Escherichia coli = test: Antimicrobial activity against Escherichia coli DSM 1116 assessed as inhibition of microbial growth incubated overnight by serial dilution method; type: functional, organism-based
Pseudomonas aeruginosa = test: Antimicrobial activity against Pseudomonas aeruginosa PA14 assessed as inhibition of microbial growth incubated overnight by serial dilution method; type: functional, organism-based
Staphylococcus aureus [1] = test: Antimicrobial activity against Staphylococcus aureus DSM 346 assessed as inhibition of microbial growth incubated overnight by serial dilution method; type: functional
[2] = test system: Chromobacterium violaceum; test: Antimicrobial activity against Chromobacterium violaceum DSM 30191 assessed as inhibition of microbial growth incubated overnight by serial dilution method; type: functional, organism-based
[3] = test system: Mycolicibacterium smegmatis; test: Antimicrobial activity against Mycobacterium smegmatis ATCC 700084 assessed as inhibition of microbial growth incubated overnight by serial dilution method; type: functional
Wickerhamomyces anomalus = test: Antimicrobial activity against Wickerhamomyces anomalus DSM 6766 assessed as inhibition of microbial growth incubated overnight by serial dilution method; type: functional, organism-based
[4] = test system: Schizosaccharomyces pombe; test: Antimicrobial activity against Schizosaccharomyces pombe DSM 70572 assessed as inhibition of microbial growth incubated overnight by serial dilution method; type: functional
Candida albicans = test: Antimicrobial activity against Candida albicans DSM 1665 assessed as inhibition of microbial growth incubated overnight by serial dilution method; type: functional
Mucor hiemalis = test: Antimicrobial activity against Mucor hiemalis DSM 2656 assessed as inhibition of microbial growth incubated overnight by serial dilution method; type: functional
Rhodotorula glutinis = test: Antimicrobial activity against Rhodotorula glutinis DSM 10134 assessed as inhibition of microbial growth incubated overnight by serial dilution method; type: functional, organism-based
KB 3-1 = test: Cytotoxicity against human KB-3-1 cells assessed as inhibition of cell growth incubated for 5 days by MTT assay; type: toxicity, cell-based; conditions: kb 3-1, 120 h, time 5 day
L929 = test: Cytotoxicity against mouse L929 cells assessed as inhibition of cell growth incubated for 5 days by MTT assay; type: toxicity, cell-based; conditions: l929, 120 h, time 5 day
Staphylococcus aureus [5] = test: Antibiofilm activity in Staphylococcus aureus DSM1104 assessed as disruption of preformed biofilm at 3.9 to 250 ug/ml incubated for 18 hrs by crystal violet staining based assay; type: functional, organism-based; conditions: dose 3.9-250 µg/ml
Staphylococcus aureus [6] = test: Antibiofilm activity in Staphylococcus aureus DSM1104 assessed as disruption of preformed biofilm at […] to […] ug/ml incubated for 18 hrs by crystal violet staining based assay relative to control; type: functional; conditions: dose lower […] microg/ml, dose upper 250 µg/ml
Staphylococcus aureus [7] = test: Antibiofilm activity in Staphylococcus aureus DSM1104 assessed as disruption of preformed biofilm at 3.9 ug/ml incubated for 18 hrs by crystal violet staining based assay relative to control; type: functional; conditions: dose 3.9 µg/ml
Staphylococcus aureus [8] = test: Antimicrobial activity against Staphylococcus aureus DSM 346 assessed as inhibition of microbial growth at 3.9 to 7.8 ug/ml measured for 10 hrs; type: functional, organism-based; conditions: DSM346, dose 3.9-7.8 µg/ml
Staphylococcus aureus [9] = test: Antimicrobial activity against Staphylococcus aureus DSM 1104 assessed as disruption of preformed biofilm by measuring reduction in metabolic activity at 3.9 ug/ml incubated for 24 hrs by XTT assay; type: functional, organism-based; conditions: dose 3.9 µg/ml
Staphylococcus aureus [10] = test: Antimicrobial activity against Staphylococcus aureus DSM 1104 assessed as disruption of preformed biofilm by measuring reduction in metabolic activity at 2 to 7.8 ug/ml measured every 90 mins for 10 hrs by absorbance based analysis; type: functional, organism-based; conditions: dose 2-7.8 µg/ml
Staphylococcus aureus [11] = test: Synergistic antimicrobial activity against Staphylococcus aureus DSM 1104 planktonic cells assessed as gentamicin MIC at 3.9 ug/ml by checkerboard assay; type: functional; conditions: dose 3.9 µg/ml
Staphylococcus aureus [12] = test: Synergistic antimicrobial activity against Staphylococcus aureus DSM 1104 planktonic cells assessed as fractional inhibitory concentration index at 3.9 ug/ml in presence of gentamicin by checkerboard assay; type: functional; conditions: dose 3.9 µg/ml
Staphylococcus aureus [13] = test: Synergistic antimicrobial activity against Staphylococcus aureus DSM 1104 planktonic cells assessed as vancomycin MIC at 3.9 ug/ml by checkerboard assay; type: functional; conditions: dose 3.9 µg/ml
Staphylococcus aureus [14] = test: Synergistic antimicrobial activity against Staphylococcus aureus DSM 1104 planktonic cells assessed as fractional inhibitory concentration index at 3.9 ug/ml in presence of vancomycin by checkerboard assay; type: functional; conditions: dose 3.9 µg/ml
Staphylococcus aureus [15] = test: Synergistic antimicrobial activity against Staphylococcus aureus DSM 1104 planktonic cells assessed as fold increase in gentamicin potency at 3.9 ug/ml by checkerboard assay relative to control; type: functional; conditions: dose 3.9 µg/ml
Staphylococcus aureus [16] = test: Synergistic antimicrobial activity against Staphylococcus aureus DSM 1104 planktonic cells assessed as inhibition of preformed biofilm by measuring fold increase in gentamicin potency at 3.9 to 7.8 ug/ml measured at 24 to 48 hrs by CFU counting assay relative to control; type: functional; conditions: dose 3.9-7.8 µg/ml; time 24-48 hrs
Staphylococcus aureus [17] = test: Synergistic antimicrobial activity against Staphylococcus aureus DSM 1104 planktonic cells assessed as inhibition of preformed biofilm by measuring fold increase in vancomycin potency at 3.9 to 7.8 ug/ml measured at 24 to 48 hrs by CFU counting assay relative to control; type: functional; conditions: dose 3.9-7.8 µg/ml; time 24-48 hrs
Staphylococcus aureus [18] = test: Antimicrobial activity against Staphylococcus aureus DSM 1104 assessed as inhibition of microbial growth incubated overnight by serial dilution method; type: functional; conditions: DSM1104
Staphylococcus aureus [19] = test: Antibiofilm activity in Staphylococcus aureus DSM1104 assessed as disruption of preformed biofilm at 31.3 ug/ml incubated for 18 hrs by crystal violet staining based assay; type: functional, organism-based; conditions: dose 31.3 µg/ml
Staphylococcus aureus [20] = test: Antibiofilm activity in Staphylococcus aureus DSM1104 assessed as disruption of preformed biofilm; type: functional, organism-based
Staphylococcus aureus [21] = test: Antibiofilm activity in Staphylococcus aureus DSM1104 assessed as disruption of preformed biofilm at 7.8 to 250 ug/ml incubated for 18 hrs by crystal violet staining based assay relative to control; type: functional; conditions: dose 7.8-250 µg/ml, at 7.8 to 250 µg/mL

Compound | Activity (Escherichia coli) | Activity (Pseudomonas aeruginosa) | Activity (Staphylococcus aureus [1]) | Activity [2] | Activity [3] | Activity (Wickerhamomyces anomalus) | Activity [4] | Activity (Candida albicans) | Activity (Mucor hiemalis) | Activity (Rhodotorula glutinis) | Activity (KB 3-1) | Activity (L929) | further results
C[C@@H](C[C@H](C)C(=O)C1=C(O)/C(=C/c2ccccc2)NC1=O)C[C@](C)(O)C(=O)CO | inactive | inactive | inactive | inactive | inactive | inactive | inactive | inactive | inactive | inactive | Non-Toxic | Non-Toxic | Activity (Bacillus subtilis): inactive
CC[C@H](C)[C@@H]1O[C@H](c2c(O)c(-c3ccccc3)cn(O)c2=O)[C@@H](C)C[C@@H]1C | inactive | inactive | – | inactive | inactive | inactive | inactive | inactive | inactive | inactive | – | – | Activity (Staphylococcus aureus [5]): inactive
C[C@H](C[C@@H](C)[C@H](C)O)C[C@H](C)C(=O)C1=C(O)/C(=C/c2ccccc2)NC1=O | inactive | inactive | – | inactive | inactive | inactive | inactive | inactive | inactive | inactive | Non-Toxic | Non-Toxic | –
CC(=O)[C@H](C)C[C@@H](C)C[C@H](C)C(=O)C1=C(O)/C(=C/c2ccccc2)NC1=O | inactive | inactive | – | inactive | inactive | inactive | – | – | – | inactive | – | – | Activity (Staphylococcus aureus [6]): ~50%; Activity (Staphylococcus aureus [7]): 35%; Activity (Staphylococcus aureus [8]): Active; Activity (Staphylococcus aureus [9]): Active; Activity (Staphylococcus aureus [10]): Active; MIC (Staphylococcus aureus [11]): 0.13 µg/mL; fractional inhibitory concentration index (FICI) (Staphylococcus aureus [12]): 0.126; MIC (Staphylococcus aureus [13]): 0.065 µg/mL; fractional inhibitory concentration index (FICI) (Staphylococcus aureus [14]): 0.158; fold change (FC) (Staphylococcus aureus [15]): 115; fold change (FC) (Staphylococcus aureus [16]): 3; fold change (FC) (Staphylococcus aureus [17]): 3
NYSTATIN | – | – | – | – | – | – | – | – | – | – | – | – | MIC (Wickerhamomyces anomalus): 8.3 µg/mL; MIC [4]: 4.2 µg/mL; MIC (Mucor hiemalis): 8.3 µg/mL; MIC (Rhodotorula glutinis): 4.2 µg/mL
GENTAMICIN | – | – | – | – | – | – | – | – | – | – | – | – | MIC (Escherichia coli): 1.7 µg/mL; MIC (Pseudomonas aeruginosa): 0.21 µg/mL; MIC (Staphylococcus aureus [1]): 0.4 µg/mL; MIC (Staphylococcus aureus [18]): 15.7 µg/mL; MIC [2]: 0.42 µg/mL
CC[C@H](C)C[C@@H](C)C[C@H](C)C(=O)C1=C(O)/C(=C/c2ccccc2)NC1=O | inactive | inactive | inactive | inactive | – | inactive | inactive | inactive | – | inactive | – | – | Activity (Staphylococcus aureus [19]): Active
C[C@@H](C[C@H](C)C(=O)C1=C(O)/C(=C/c2ccccc2)NC1=O)C[C@](C)(O)[C@@H](O)CO | inactive | inactive | inactive | inactive | inactive | inactive | inactive | inactive | inactive | inactive | Non-Toxic | Non-Toxic | Activity (Bacillus subtilis): inactive
CCC(/C=C(C)/C=C/C(=O)c1c(O)c(-c2ccc(O)cc2)cn(O)c1=O)CO (centres undefined) | – | – | – | – | – | – | – | – | – | – | – | – | Activity (Staphylococcus aureus [20]): inactive
C[C@H](C[C@@H](C)[C@H](C)OC=O)C[C@H](C)C(=O)C1=C(O)/C(=C/c2ccccc2)NC1=O | inactive | inactive | – | inactive | inactive | inactive | inactive | inactive | – | inactive | – | – | Activity (Staphylococcus aureus [21]): 50%; Activity (Staphylococcus aureus [7]): 35%
